Experiments:
[1] = test system: prostate cancer cells PPC-1, Du145, LNCaP and RWPE2; experiment: Alamar Blue proliferation assay, average over four prostate cancer cell lines; type: cell-based, human
Description: The inventors assessed the therapeutic effect of hsa-miR-34a for prostate cancer by using four individual human prostate cancer cell lines. To measure cellular proliferation of prostate cancer cells, the following prostate cancer cell lines were used: PPC-1, derived from a bone metastasis; Du145, derived from a brain metastasis; RWPE2, derived from prostate cells immortalized by human papillomavirus 18 and transformed by the K-RAS oncogene; and LNCaP, derived from a lymph node metastasis (Bello et al., 1997; Pretlow et al., 1993; Stone et al., 1978; Brothman et al., 1991; Horoszewicz et al., 1980). PPC-1 and Du145 cells lack expression of the prostate-specific antigen (PSA) and are independent of androgen receptor (AR) signaling. In contrast, RWPE2 and LNCaP cells test positive for PSA and AR. Cells were transfected with synthetic hsa-miR-34a (Pre-miR™-hsa-miR-34a, Ambion cat. no. AM17100) or negative control miRNA (NC; Pre-miR™ microRNA Precursor Molecule-Negative Control #2; Ambion cat. no. AM17111) in a 96-well format using a lipid-based transfection reagent. […] Proliferation was assessed 4-7 days post-transfection using Alamar Blue™ (Invitrogen) following the manufacturer's instructions. […] Fluorescent light units (FLU) were measured after 3 hours, normalized to the control, and plotted as percent change in proliferation. […]

H460 lung cancer cells = experiment: Alamar Blue proliferation assay with pair-wise miRNA combinations; type: cell-based, human
Description: miRNAs function in multiple pathways controlling multiple cellular processes. Cancer cells frequently show aberrations in several different pathways, which determine their oncogenic properties. […] The inventors assessed the efficacy of pair-wise miRNA combinations, administering hsa-miR-34a concurrently with either hsa-miR-124a, hsa-miR-126, hsa-miR-147, hsa-let-7b, hsa-let-7c or hsa-let-7g (Pre-miR™ miRNA, Ambion cat. no. AM17100). H460 lung cancer cells were transiently reverse-transfected in triplicate with each miRNA at a final concentration of 300 pM, resulting in 600 pM of total oligonucleotide. For negative controls, 600 pM of Pre-miR™ microRNA Precursor Molecule-Negative Control #2 (Ambion cat. no. AM17111) were used. To correlate the effect of various combinations with the effect of the sole miRNA, each miRNA at 300 pM was also combined with 300 pM negative control miRNA. Reverse transfection was carried out using the following parameters: 7,000 cells per 96 well, 0.15 μl Lipofectamine™ 2000 (Invitrogen) in 20 μl OptiMEM (Invitrogen), 100 μl total transfection volume. […] Cells were harvested 72 hours after transfection and subjected to Alamar Blue assays (Invitrogen). Percent proliferation values from the Alamar Blue assays were normalized to those obtained from cells treated with 600 pM negative control miRNA. Data are expressed as % proliferation relative to negative control miRNA-treated cells (Table 8, FIG. 3).
Additive activity of pair-wise combinations (e.g., hsa-miR-34a plus hsa-miR-147) is defined as an activity that is greater than the sole activity of each miRNA (e.g., the activity of hsa-miR-34a plus hsa-miR-147 is greater than that observed for hsa-miR-34a plus NC and the activity of hsa-miR-34a plus hsa-miR-147 is greater than that observed for hsa-miR-147 plus NC). Synergistic activity of pair-wise combinations is defined as an activity that is greater than the sum of the sole activity of each miRNA (e.g., the activity of hsa-miR-34a plus hsa-let-7g is greater than that observed for the sum of the activity of hsa-miR-34a plus NC and the activity of hsa-let-7g plus NC). […] The combinatorial use of miRNAs represents a potentially useful therapy for cancer and other diseases.

HeLa = conditions: cited from earlier work
H226 lung cancer cells = experiment: Long-term growth curve with repeated electroporation; type: cell-based, human; conditions: day 31, relative to control cells (100%)
Experimental: To evaluate the therapeutic activity of hsa-miR-34a over an extended period of time, the inventors conducted growth curve experiments in the presence of miRNA for up to 31 days in H226 lung cancer cells. Since in vitro transfections of naked interfering RNAs, such as synthetic miRNA, are transient by nature and compromised by the dilution of the oligo during ongoing cell divisions, miRNA was administered at multiple time points (Bartlett et al., 2006; Bartlett et al., 2007). To accommodate miRNA delivery into a large quantity of cells, hsa-miR-34a or negative control miRNA were delivered by the electroporation method. Briefly, 1×10^6H226 were electroporated in triplicate with 1.6 μM hsa-miR-34a or negative control using the BioRad Gene Pulser Xcell™ instrument (BioRad Laboratories Inc., Hercules, Calif., USA), seeded and propagated in regular growth medium. When the control cells reached confluence (days 6, 17 and 25), cells were harvested, counted and electroporated again with the respective miRNAs. […] The population doubling was calculated from these electroporation events using the formula PD=ln(Nf/N0)/ln 2 and adjusting for the fact that approximately 72% of newly seeded cells adhere to the plate. […]

lung cancer cells (A549) = conditions: cited from earlier work
Jurkat = conditions: cited from earlier work

hsa-miR-34a: synthetic miRNA; mature sequence UGGCAGUGUCUUAGCUGGUUGUU (MIMAT0000255; SEQ ID NO:1) (synthetic miRNA, chemistry not given here)
average inhibition of cellular proliferation ([1]; average over four prostate cancer cell lines, 30 nM, relative to negative control miRNA): 37.18% | growth-inhibitory activity compared with siEg5 ([1]; prostate cancer cell lines): comparable to that of Eg5-directed siRNA | reduction of proliferation (H460 lung cancer cells; 300 pM hsa-miR-34a plus 300 pM negative control miRNA): 0.42% | % proliferation (H460 lung cancer cells; each miRNA 300 pM (600 pM total), 72 h, normalized to 600 pM negative control miRNA): 99.58% | programmed cell death (apoptosis) (HeLa): decreased | inhibition of H226 cell growth (H226 lung cancer cells; 1.6 μM electroporated on days 0, 6, 17, 25): 94.9% | remaining cells (H226 lung cancer cells): 5.1% | proliferation (lung cancer cells (A549)): inhibits the proliferation | programmed cell death (apoptosis) (Jurkat): increased

— US20090227533A1, “miR-34 Regulated Genes and Pathways as Targets for Therapeutic Intervention” (priority 2007, published 2009)
